Source: patent US9833497B2, “Human originated EGF domain proteins and use of the same” (CHENGDU SOURCEBIO LIMITED-LIABILITY COMPANY, priority 2013, dated 2017)

Experiments:
Format in all cases: cell-based
Proteus mirabilis = test: MIC against Gram-negative bacteria: Proteus mirabilis
Procedure, shortened: (§1)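 Two-fold serial dilutions of each purified human EGF domain protein, three replicate wells per level, were combined with bacteria at a final 5×10^5 CFU/mL in LB. Cultures were shaken at 175 rpm, 37° C. The MIC was taken as the minimum concentration preventing growth.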

Pseudomonas aeruginosa = test: MIC against Gram-negative bacteria: Pseudomonas aeruginosa
Procedure, shortened: as §1

Enterobacter cloacae = test: MIC against Gram-negative bacteria: Enterobacter cloacae
Procedure, shortened: as §1

Serratia marcescens = test: MIC against Gram-negative bacteria: Serratia marcescens
Procedure, shortened: as §1

E. coli BL21 = test: MIC against Gram-negative bacteria: E. coli BL21; conditions: for MIC / MIC (μg/mL) E. coli BL21: E. coli BL21
Procedure, shortened: as §1

Proteus vulgaris = test: MIC against Gram-negative bacteria: Proteus vulgaris
Procedure, shortened: as §1

E. coli DH5α = test: Antibacterial activity: MIC and growth curve against E. coli DH5α in 96-well plate; conditions: minimal inhibitory concentration against E. coli DH5α; 96-well plate, 5×10^5 CFU/mL, 37° C., judged after 8 h
Procedure, shortened: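 Log-phase DH5α (OD600 about 0.5, 37° C, 185 rpm in LB) was pelleted, resuspended in fresh LB and seeded at 5×10^5 CFU/mL with recombinant protein at 50, 25 and 12.5 μg/mL (two-fold series), in triplicate. Plates were shaken at 175 rpm, 37° C, and OD600 was read every 30 min. MIC was the lowest concentration with no growth.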

Moraxella catarrhalis = test: MIC against Gram-negative bacteria: Moraxella catarrhalis
Procedure, shortened: as §1

Klebsiella pneumonia = test: MIC against Gram-negative bacteria: Klebsiella pneumonia
Procedure, shortened: as §1

Citrobacter diversus = test: MIC against Gram-negative bacteria: Citrobacter diversus
Procedure, shortened: as §1

Aeromonas hydrophila = test: MIC against Gram-negative bacteria: Aeromonas hydrophila
Procedure, shortened: as §1

[1] = P. mirabilis, 10 h cultivation at 37° C.
[2] = P. aeruginosa, 10 h cultivation at 37° C.
[3] = E. cloacae, 10 h cultivation at 37° C.
[4] = S. marcescens, 10 h cultivation at 37° C.
[5] = P. vulgaris, 10 h cultivation at 37° C.
[6] = M. catarrhalis, 10 h cultivation at 37° C.
[7] = K. pneumonia, 10 h cultivation at 37° C.
[8] = C. diversus, 10 h cultivation at 37° C.
[9] = A. hydrophila, 10 h cultivation at 37° C.
[10] = 10 h cultivation at 37° C., 5×10^5 CFU/mL, two-fold serial dilution

PRT946 (EVDECQNQPCQNGGTCIDLVNHFKCSCPPGTRGLLCE; listed as Homo sapiens)
12.5 µg/mL: MIC (E. coli BL21; 10 h cultivation at 37° C.) | MIC (Proteus vulgaris; [5]) | MIC (Klebsiella pneumonia; [7]) | MIC (Citrobacter diversus; [8])
25 µg/mL: MIC (Proteus mirabilis; [1]) | MIC (Aeromonas hydrophila; [9])
50 µg/mL: MIC (Pseudomonas aeruginosa; [2]) | MIC (Enterobacter cloacae; [3]) | MIC (Serratia marcescens; [4]) | MIC (E. coli DH5α) | MIC (Moraxella catarrhalis; [6])

PRT977 (EVDPCLAQPCQHGGTCRGYMGGYMCECLPGYNGDNCE; listed as Homo sapiens)
25 µg/mL: MIC (Serratia marcescens; [4]) | MIC (Moraxella catarrhalis; [6]) | MIC (Aeromonas hydrophila; [9])
12.5 µg/mL: MIC (Proteus mirabilis; [1]) | MIC (Pseudomonas aeruginosa; [2]) | MIC (Enterobacter cloacae; [3]) | MIC (E. coli DH5α)
50 µg/mL: MIC (E. coli BL21; 10 h cultivation at 37° C.) | MIC (Proteus vulgaris; [5]) | MIC (Klebsiella pneumonia; [7]) | MIC (Citrobacter diversus; [8])

PRT162 (LIDFCALSPCAHGTCRSVGTSYKCLCDPGYHGLYCE; listed as Homo sapiens)
100 µg/mL: MIC (μg/mL) P. mirabilis (Proteus mirabilis; P. mirabilis, 10 h cultivation at 37° C., 5×10^5 CFU/mL)
25 µg/mL: MIC (μg/mL) S. marcescens (Serratia marcescens; S. marcescens, 10 h cultivation at 37° C., 5×10^5 CFU/mL) | MIC (μg/mL) E. coli BL21 (E. coli BL21; 10 h cultivation at 37° C., 5×10^5 CFU/mL) | MIC (μg/mL) K. pneumonia (Klebsiella pneumonia; K. pneumonia, 10 h cultivation at 37° C., 5×10^5 CFU/mL) | MIC (μg/mL) A. hydrophila (Aeromonas hydrophila; A. hydrophila, 10 h cultivation at 37° C., 5×10^5 CFU/mL)
12.5 µg/mL: MIC (μg/mL) P. aeruginosa (Pseudomonas aeruginosa; P. aeruginosa, 10 h cultivation at 37° C., 5×10^5 CFU/mL) | MIC (μg/mL) E. cloacae (Enterobacter cloacae; E. cloacae, 10 h cultivation at 37° C., 5×10^5 CFU/mL) | MIC (μg/mL) P. vulgaris (Proteus vulgaris; P. vulgaris, 10 h cultivation at 37° C., 5×10^5 CFU/mL) | MIC (E. coli DH5α) | MIC (μg/mL) M. catarrhalis (Moraxella catarrhalis; M. catarrhalis, 10 h cultivation at 37° C., 5×10^5 CFU/mL) | MIC (μg/mL) C. diversus (Citrobacter diversus; C. diversus, 10 h cultivation at 37° C., 5×10^5 CFU/mL)

PRT95 (DINECETGQHNCVPNSVCINTRGSFQCGPCQPGFVGDQASGCQ; listed as Homo sapiens)
50 µg/mL: MIC (μg/mL) P. aeruginosa (Pseudomonas aeruginosa; Pseudomonas aeruginosa, 96-well plate, 5×10^5 CFU/mL, 37° C., 10 h) | MIC (μg/mL) E. cloacae (Enterobacter cloacae; Enterobacter cloacae, 96-well plate, 5×10^5 CFU/mL, 37° C., 10 h) | MIC (μg/mL) P. vulgaris (Proteus vulgaris; Proteus vulgaris, 96-well plate, 5×10^5 CFU/mL, 37° C., 10 h) | MIC (μg/mL) C. diversus (Citrobacter diversus; Citrobacter diversus, 96-well plate, 5×10^5 CFU/mL, 37° C., 10 h)
25 µg/mL: MIC (μg/mL) P. mirabilis (Proteus mirabilis; Proteus mirabilis, 96-well plate, 5×10^5 CFU/mL, 37° C., 10 h) | MIC (μg/mL) S. marcescens (Serratia marcescens; Serratia marcescens, 96-well plate, 5×10^5 CFU/mL, 37° C., 10 h) | MIC (E. coli DH5α)
12.5 µg/mL: MIC (μg/mL) E. coli BL21 (E. coli BL21; 96-well plate, 5×10^5 CFU/mL, 37° C., 10 h) | MIC (μg/mL) M. catarrhalis (Moraxella catarrhalis; Moraxella catarrhalis, 96-well plate, 5×10^5 CFU/mL, 37° C., 10 h) | MIC (μg/mL) K. pneumonia (Klebsiella pneumonia; Klebsiella pneumonia, 96-well plate, 5×10^5 CFU/mL, 37° C., 10 h) | MIC (μg/mL) A. hydrophila (Aeromonas hydrophila; Aeromonas hydrophila, 96-well plate, 5×10^5 CFU/mL, 37° C., 10 h)

PRT1126 (DVRACSSAPCANNRTCVSLDDGLYECSCAPGYSGKDCQ; listed as Homo sapiens)
50 µg/mL: MIC P. mirabilis (Proteus mirabilis; [10]) | MIC S. marcescens (Serratia marcescens; [10]) | MIC E. coli BL21 (E. coli BL21; [10]) | MIC C. diversus (Citrobacter diversus; [10])
12.5 µg/mL: MIC P. vulgaris (Proteus vulgaris; [10]) | MIC M. catarrhalis (Moraxella catarrhalis; [10]) | MIC K. pneumonia (Klebsiella pneumonia; [10])
25 µg/mL: MIC P. aeruginosa (Pseudomonas aeruginosa; [10]) | MIC E. cloacae (Enterobacter cloacae; [10]) | MIC (E. coli DH5α) | MIC A. hydrophila (Aeromonas hydrophila; [10])
